Reference: publication PMC10301845, “Characterization of a Novel M4 PAM PET Radioligand [11C]PF06885190 in Nonhuman Primates (NHP)” (Molecules, 2023)

Tested on: M4
Assay: PET measurements of brain distribution in NHP (SUV, VT by 1-TC and Logan)
Assay type: in vivo, cynomolgus monkey (Macaca fascicularis)
Set-up: VT 1-TC Baseline: unit not given here
Conditions: for VT 1-TC %Decrease / VT Logan %Decrease: baseline vs pretreatment with CVL-231; for VT 1-TC Pretreatment / VT Logan Pretreatment: pretreatment with CVL-231
Method: Two male cynomolgus monkeys (Macaca fascicularis, NHP) M1 and M2, with body weight of 7.8 kg and 7.1 kg, respectively, were studied on three different experimental days for a total of six PET measurements. Both NHPs underwent two PET measurements on the same day. The first PET measurement was performed with [^11C]PF06885190, followed by the second PET measurement after pretreatment with either CVL-231 or donepezil. CVL-231 (0.24 mg/kg, IV) was administrated 10 min before the administration of [^11C]PF06885190 via a constant infusion (0.0027 mg/min/kg) throughout the whole PET measurement. Donepezil (0.25 mg/kg) was administrated 30 min before the administration of [^11C]PF06885190. Both NHPs were supplied by the Astrid Fagraeus Laboratory of the Swedish Institute for Infectious Disease Control (SMI), Solna, Sweden. The study was approved by the Animal Ethics Committee of the Swedish Animal Welfare Agency and was performed according to “Guidelines for planning, conducting and documenting experimental research” (Dnr 4820/06-600) of the KI as well as the “Guide for the Care and Use of Laboratory Animals” [26]. Anesthesia was initiated at Astrid Fagraeus Laboratory either by intramuscular injection of ketamine hydrochloride (10 mg/kg) and maintained by the administration of a mixture of isoflurane, oxygen, and medical air through endotracheal intubation, or by intravenous infusion of a mixture of ketamine hydrochloride (4 mg/kg/h) and xylazine hydrochloride (0.4 mg/kg/h). To fix the position of the head of the NHP during the course of whole PET measurement, a prototype device was used. Body temperature was maintained by a Bair Hugger-Model 505 (Arizant Health Care Inc., Eden Prairie, MN 55344, USA) and monitored by an oral thermometer. ECG, heart rate, respiratory rate and oxygen saturation were continuously monitored throughout the experiments and blood pressure was monitored every 15 min.
All the PET measurements in this study were performed by using a High Resolution Research Tomograph (HRRT) (Siemens Molecular Imaging) scanner. The corresponding in-plane resolution with OP-3D-OSEM PSF was 1.5 mm full width at half-maximum (FWHM) at the center of the field of view (FOV) and 2.4 mm at 10 cm off-center directions. List-mode data were acquired continuously for 123 min immediately after intravenous injection of [^11C]PF06885190. Images were reconstructed by the ordinary Poisson-3D-ordered subset expectation maximization (OP-3D-OSEM) algorithm. Prior to each PET acquisition, a 6 min transmission scan was performed, using a single ^137Cs source, for attenuation and scatter correction. Brain magnetic resonance imaging was performed in a 1.5-T GE Signa system (General Electric, Milwaukee, WI, USA). A T1-weighted image was obtained for co-registration with PET and delineation of anatomic brain regions. The T1 sequence was a 3D spoiled gradient-recalled (SPGR) protocol with the following settings: repetition time (TR) 21 ms, flip angle 35°; FOV 12.8; matrix 256 × 256 × 128; 128 × 1.0 mm slices; 2 NEX. The sequence was optimized for trade-off between a minimum of scanning time and a maximum of spatial resolution and contrast between gray and white matter.
For both NHPs, the radioligand [^11C]PF06885190 was administrated with an intravenous (i.v.) injection. The regions of interests (ROIs) were delineated manually on MRI images of each NHP for the whole brain, cerebellum, caudate, putamen, thalamus, frontal cortex, temporal cortex, hippocampus, anterior cingulate cortex, posterior cingulate cortex, parietal cortex, occipital cortex, amygdala, ventral striatum and insula. The summed PET images of the whole duration were co-registered to the MRI image of the individual NHP. After applying the co-registration parameters to the dynamic PET data, the time-activity curves (TACs) of brain regions were generated for each PET measurement. Standardized uptake value (SUV) was calculated for each brain region. […]

[1] = anterior cingulate cortex, baseline
[2] = posterior cingulate cortex, baseline

Compound: Cc1nc(N[11CH3])c2c(c1C)CN(C(=O)C[C@H]1C[C@@H]1c1ccc(F)nc1)C2 [[^11C]PF06885190]
- Change of VT from baseline (after pretreatment with M4 PAM CVL-231): around −10%
- VT 1-TC Baseline (amygdala, baseline): 2.290
- VT Logan Baseline (amygdala, baseline): 2.549
- VT 1-TC %Decrease (amygdala): 6.7%
- VT Logan %Decrease (amygdala): 9.6%
- VT 1-TC Pretreatment (amygdala): 2.137
- VT Logan Pretreatment (amygdala): 2.304
- VT 1-TC Baseline [1]: 2.245
- VT Logan Baseline [1]: 2.503
- VT 1-TC %Decrease (anterior cingulate cortex): 9.6%
- VT Logan %Decrease (anterior cingulate cortex): 8.4%
- VT 1-TC Pretreatment (anterior cingulate cortex): 2.030
- VT Logan Pretreatment (anterior cingulate cortex): 2.293
- VT 1-TC %Decrease (average of brain regions): 10.3%
- VT Logan %Decrease (average of brain regions): 12%
- Whole brain uptake at peak (baseline conditions, i.v.): 2.0–4.1 SUV
- wash-out: time to drop to half of the peak (brain, baseline): around 10 min
- VT 1-TC Baseline (caudate, baseline): 2.388
- VT Logan Baseline (caudate, baseline): 2.683
- VT 1-TC %Decrease (caudate): 1.3%
- VT Logan %Decrease (caudate): 7.8%
- VT 1-TC Pretreatment (caudate): 2.357
- VT Logan Pretreatment (caudate): 2.475
- VT 1-TC Baseline (cerebellum, baseline): 2.205
- VT Logan Baseline (cerebellum, baseline): 3.055
- VT 1-TC %Decrease (cerebellum): 15.0%
- VT Logan %Decrease (cerebellum): 21.4%
- VT 1-TC Pretreatment (cerebellum): 1.875
- VT Logan Pretreatment (cerebellum): 2.401
- change of VT after administration of donepezil (donepezil 0.25 mg/kg 30 min before radioligand): No significant change
- VT 1-TC Baseline (frontal cortex, baseline): 2.521
- VT Logan Baseline (frontal cortex, baseline): 2.940
- VT 1-TC %Decrease (frontal cortex): 15.1%
- VT Logan %Decrease (frontal cortex): 18.6%
- VT 1-TC Pretreatment (frontal cortex): 2.140
- VT Logan Pretreatment (frontal cortex): 2.394
- VT 1-TC Baseline (hippocampus, baseline): 2.361
- VT Logan Baseline (hippocampus, baseline): 2.595
- VT 1-TC %Decrease (hippocampus): 9.1%
- VT Logan %Decrease (hippocampus): 9.8%
- VT 1-TC Pretreatment (hippocampus): 2.146
- VT Logan Pretreatment (hippocampus): 2.341
- VT 1-TC Baseline (insula, baseline): 2.617
- VT Logan Baseline (insula, baseline): 2.811
- VT 1-TC %Decrease (insula): 11.6%
- VT Logan %Decrease (insula): 6.4%
- VT 1-TC Pretreatment (insula): 2.314
- VT Logan Pretreatment (insula): 2.631
- VT 1-TC Baseline (occipital cortex, baseline): 2.871
- VT Logan Baseline (occipital cortex, baseline): 3.534
- VT 1-TC %Decrease (occipital cortex): 14.2%
- VT Logan %Decrease (occipital cortex): 18.7%
- VT 1-TC Pretreatment (occipital cortex): 2.462
- VT Logan Pretreatment (occipital cortex): 2.873
- VT 1-TC Baseline (parietal cortex, baseline): 2.515
- VT Logan Baseline (parietal cortex, baseline): 2.709
- VT 1-TC %Decrease (parietal cortex): 16.1%
- VT Logan %Decrease (parietal cortex): 14.5%
- VT 1-TC Pretreatment (parietal cortex): 2.109
- VT Logan Pretreatment (parietal cortex): 2.316
- VT 1-TC Baseline [2]: 2.384
- VT Logan Baseline [2]: 2.723
- VT 1-TC %Decrease (posterior cingulate cortex): 17.7%
- VT Logan %Decrease (posterior cingulate cortex): 18.3%
- VT 1-TC Pretreatment (posterior cingulate cortex): 1.963
- VT Logan Pretreatment (posterior cingulate cortex): 2.225
- decrease after pretreatment (pretreatment with specific M4 ligand CVL-231): 10%
- VT 1-TC Baseline (putamen, baseline): 2.632
- VT Logan Baseline (putamen, baseline): 3.006
- VT 1-TC %Decrease (putamen): 3.5%
- VT Logan %Decrease (putamen): 7.0%
- VT 1-TC Pretreatment (putamen): 2.539
- VT Logan Pretreatment (putamen): 2.795
- VT 1-TC Baseline (temporal cortex, baseline): 2.690
- VT Logan Baseline (temporal cortex, baseline): 2.992
- VT 1-TC %Decrease (temporal cortex): 11.4%
- VT Logan %Decrease (temporal cortex): 9.2%
- VT 1-TC Pretreatment (temporal cortex): 2.383
- VT Logan Pretreatment (temporal cortex): 2.717
- VT 1-TC Baseline (thalamus, baseline): 2.496
- VT Logan Baseline (thalamus, baseline): 2.778
- VT 1-TC %Decrease (thalamus): 6.4%
- VT Logan %Decrease (thalamus): 14.8%
- VT 1-TC Pretreatment (thalamus): 2.337
- VT Logan Pretreatment (thalamus): 2.367
- VT 1-TC Baseline (ventral striatum, baseline): 2.305
- VT Logan Baseline (ventral striatum, baseline): 2.398
- VT 1-TC %Decrease (ventral striatum): 7.0%
- VT Logan %Decrease (ventral striatum): 3.1%
- VT 1-TC Pretreatment (ventral striatum): 2.144
- VT Logan Pretreatment (ventral striatum): 2.324
